How the values were obtained:
Conditions in all cases: incubation time: 72 h
[1] = tested on: MCF-10A; assay: normalised response (% of control), CellTiter-Glo; higher = more viable cells (100 = DMSO, 0 = benzethonium chloride kill control)
How it was run: (§1)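 Each entry is the normalised signal at a single concentration within a series. The series comprised 5 concentrations in 10-fold steps over a compound-specific 10,000-fold range, placed in 384-well plates into which breast cancer cell lines were seeded as 20 µl suspension and incubated 72 h. CellTox Green (485/520 nm) fluorescence and then CellTiter-Glo luminescence were read, with signals normalised per plate to 0.1 % DMSO (100) and a positive kill control (0).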

[2] = tested on: CAL-148; assay: as above
How it was run: as §1

[3] = tested on: CAL-51; assay: as above
How it was run: as §1

[4] = tested on: HDQ-P1; assay: as above
How it was run: as §1

[5] = tested on: SK-BR-3; assay: as above
How it was run: as §1

[6] = tested on: MDA-MB-468; assay: as above
How it was run: as §1

[7] = tested on: MFM-223; assay: as above
How it was run: as §1

[8] = tested on: HCC1937; assay: as above
How it was run: as §1

[9] = tested on: BT-474; assay: as above
How it was run: as §1

[10] = tested on: MDA-MB-453; assay: as above
How it was run: as §1

[11] = tested on: HCC1599; assay: as above
How it was run: as §1

[12] = tested on: BT-549; assay: as above
How it was run: as §1

[13] = tested on: MDA-MB-436; assay: as above
How it was run: as §1

[14] = tested on: Hs578T; assay: as above
How it was run: as §1

[15] = tested on: MDA-MB-231; assay: as above
How it was run: as §1

[16] = tested on: CAL-120; assay: as above
How it was run: as §1

[17] = tested on: DU-4475; assay: as above
How it was run: as §1

[18] = tested on: CAL-85-1; assay: as above
How it was run: as §1

[19] = tested on: HCC1143; assay: as above
How it was run: as §1

[20] = tested on: CAL-148; assay: normalised viability (% of control), CellTiter-Blue; higher = more viable cells (100 = DMSO, 0 = benzethonium chloride kill control)
How it was run: (§2)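 The reported quantity is normalised viability at a single listed concentration of the series. Compound in 5 µl medium was pre-dispensed into 384-well plates and 20 µl of breast cancer cell suspension was added for 72 h. A 2 h, 37 °C CellTiter-Blue step (2.5 µl) preceded fluorescence reading at 560/590 nm, and plates were normalised to vehicle (100) and a positive kill control (0).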

[21] = tested on: CAL-51; assay: as above
How it was run: as §2

[22] = tested on: HDQ-P1; assay: as above
How it was run: as §2

[23] = tested on: SK-BR-3; assay: as above
How it was run: as §2

[24] = tested on: MDA-MB-468; assay: as above
How it was run: as §2

[25] = tested on: MFM-223; assay: as above
How it was run: as §2

[26] = tested on: HCC1937; assay: as above
How it was run: as §2

[27] = tested on: BT-474; assay: as above
How it was run: as §2

[28] = tested on: MDA-MB-453; assay: as above
How it was run: as §2

[29] = tested on: HCC1599; assay: as above
How it was run: as §2

[30] = tested on: BT-549; assay: as above
How it was run: as §2

[31] = tested on: MDA-MB-436; assay: as above
How it was run: as §2

[32] = tested on: Hs578T; assay: as above
How it was run: as §2

[33] = tested on: MDA-MB-231; assay: as above
How it was run: as §2

[34] = tested on: CAL-120; assay: as above
How it was run: as §2

[35] = tested on: DU-4475; assay: as above
How it was run: as §2

[36] = tested on: CAL-85-1; assay: as above
How it was run: as §2

[37] = tested on: HCC1143; assay: as above
How it was run: as §2

| SMILES | normalised response [1] [%] | normalised response [2] [%] | normalised response [3] [%] | normalised response [4] [%] | normalised response [5] [%] | normalised response [6] [%] | normalised response [7] [%] | normalised response [8] [%] | normalised response [9] [%] | normalised response [10] [%] | normalised response [11] [%] | normalised response [12] [%] | normalised response [13] [%] | normalised response [14] [%] | normalised response [15] [%] | normalised response [16] [%] | normalised response [17] [%] | normalised response [18] [%] | normalised response [19] [%] | normalised viability [20] [%] | normalised viability [21] [%] | normalised viability [22] [%] | normalised viability [23] [%] | normalised viability [24] [%] | normalised viability [25] [%] | normalised viability [26] [%] | normalised viability [27] [%] | normalised viability [28] [%] | normalised viability [29] [%] | normalised viability [30] [%] | normalised viability [31] [%] | normalised viability [32] [%] | normalised viability [33] [%] | normalised viability [34] [%] | normalised viability [35] [%] | normalised viability [36] [%] | normalised viability [37] [%] |
| --- | --- | --- | --- | --- | --- | --- | --- | --- | --- | --- | --- | --- | --- | --- | --- | --- | --- | --- | --- | --- | --- | --- | --- | --- | --- | --- | --- | --- | --- | --- | --- | --- | --- | --- | --- | --- | --- |
| CC1(C)CCC(c2ccc(Cl)cc2)=C(CN2CCN(c3ccc(C(=O)NS(=O)(=O)c4ccc(N[C@H](CCN5CCOCC5)CSc5ccccc5)c(S(=O)(=O)C(F)(F)F)c4)cc3)CC2)C1 [Navitoclax] (1 nM) | 93.5 | 90.3 | 74.1 | 106 | 92.4 | 95.1 | 93.8 | 98.2 | 95.7 | 94.4 | 98.6 | 102 | 95.6 | 97.6 | 99.2 | 94 | 101 | 91.8 | 88.7 | 99.2 | 109 | 67 | 78.4 | 90.2 | 69.9 | 88.2 | 88.9 | 83.4 | 90.9 | 103 | 59.8 | 99.2 | 84.6 | 73.8 | 88.6 | 79.1 | 81.6 |
| CCNC(=O)c1noc(-c2cc(C(C)C)c(O)cc2O)c1-c1ccc(CN2CCOCC2)cc1 [NVP-AUY922] (0.1 nM) | 105 | 110 | 94.8 | 102 | 108 | 105 | 106 | 104 | 113 | 106 | 123 | 107 | 102 | 94.9 | 106 | 107 | 102 | 107 | 101 | 104 | 99.5 | 81.1 | 94.8 | 106 | 99.4 | 91.2 | 109 | 114 | 103 | 97.2 | 99.6 | 150 | 121 | 111 | 109 | 104 | 121 |

Source: the supplement of paper PMC4862054
